Experimental data reported in US4996217A, “Pyridyl-substituted imidazoles, compositions containing same and methods of use thereof” (Tanabe Seiyaku Company, Ltd., priority 1986, dated 1991).

Tested on: gastrin-induced gastric acid secretion
Experiment: effect on gastrin-induced gastric acid secretion, oral administration to rats
Assay type: in vivo
Settings: dose of 30 mg/kg

| Structure (SMILES) | decrease in gastric acid secretion as compared with non-administered group of rats |
| --- | --- |
| CCN(CC)c1ccccc1C[S+]([O-])c1nc2c(n1-c1ccccn1)CCC2 (stereo not drawn) [1,4,5,6-tetrahydro-1-(2-pyridyl)-2-(2-(diethylamino)benzylsulfinyl)cyclopenta(d)imidazole] | more than 70% |
| [O-][S+](Cc1ccccc1-n1cccc1)c1nccn1-c1ccccn1 (stereo not drawn) [1-(2-pyridyl)-2-(2-(1-pyrrolyl)-benzylsulfinyl)imidazole] | more than 70% |
| Cc1cccnc1-n1ccnc1[S+]([O-])Cc1ccccc1N(C)C (stereo not drawn) [1-(3-methyl-2-pyridyl)-2-(2-(dimethylamino)benzylsulfinyl)imidazole] | more than 70% |

Biological target: T1, H+/K+ ATPase (Sus scrofa, UniProt P19156)
T1 construct: prepared from the porcine gastric mucosa; from tissue; host or cells: porcine gastric mucosa
Experiment: effect on the enzyme activity of H+/K+ ATPase prepared from porcine gastric mucosa
Assay type: biochemical
Settings: read-out: IC50 (concentration required to induce 50% inhibition of H+/K+ ATPase enzymatic activity)

T1 sequence (P19156 2-1034 limits assumed): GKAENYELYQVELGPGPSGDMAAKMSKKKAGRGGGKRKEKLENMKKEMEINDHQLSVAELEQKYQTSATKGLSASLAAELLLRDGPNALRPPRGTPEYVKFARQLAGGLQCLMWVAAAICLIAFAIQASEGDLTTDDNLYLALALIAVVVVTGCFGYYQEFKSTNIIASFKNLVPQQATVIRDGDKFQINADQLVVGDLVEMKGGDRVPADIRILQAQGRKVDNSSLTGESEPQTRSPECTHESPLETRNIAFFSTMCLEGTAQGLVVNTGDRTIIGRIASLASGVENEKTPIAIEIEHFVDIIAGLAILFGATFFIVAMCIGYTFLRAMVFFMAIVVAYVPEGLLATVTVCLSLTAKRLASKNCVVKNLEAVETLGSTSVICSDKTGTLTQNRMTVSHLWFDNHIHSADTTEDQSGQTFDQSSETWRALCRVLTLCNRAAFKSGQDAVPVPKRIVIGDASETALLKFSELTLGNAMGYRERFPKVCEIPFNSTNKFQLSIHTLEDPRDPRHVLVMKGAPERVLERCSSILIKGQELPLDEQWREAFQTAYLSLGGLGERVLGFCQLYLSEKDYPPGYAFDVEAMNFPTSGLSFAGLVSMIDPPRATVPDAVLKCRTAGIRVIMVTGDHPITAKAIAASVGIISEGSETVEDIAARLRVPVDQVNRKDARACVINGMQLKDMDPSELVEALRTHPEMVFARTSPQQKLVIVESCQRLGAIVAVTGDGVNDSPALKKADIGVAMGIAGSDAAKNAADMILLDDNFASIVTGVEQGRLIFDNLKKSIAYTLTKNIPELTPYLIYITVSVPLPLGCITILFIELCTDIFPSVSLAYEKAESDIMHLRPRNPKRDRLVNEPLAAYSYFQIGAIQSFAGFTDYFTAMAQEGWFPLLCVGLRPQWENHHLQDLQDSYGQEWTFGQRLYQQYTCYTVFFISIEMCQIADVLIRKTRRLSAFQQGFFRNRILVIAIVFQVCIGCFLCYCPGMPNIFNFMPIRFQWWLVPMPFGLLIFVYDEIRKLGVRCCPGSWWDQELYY
T1 sequence (P18434 whole entry partner): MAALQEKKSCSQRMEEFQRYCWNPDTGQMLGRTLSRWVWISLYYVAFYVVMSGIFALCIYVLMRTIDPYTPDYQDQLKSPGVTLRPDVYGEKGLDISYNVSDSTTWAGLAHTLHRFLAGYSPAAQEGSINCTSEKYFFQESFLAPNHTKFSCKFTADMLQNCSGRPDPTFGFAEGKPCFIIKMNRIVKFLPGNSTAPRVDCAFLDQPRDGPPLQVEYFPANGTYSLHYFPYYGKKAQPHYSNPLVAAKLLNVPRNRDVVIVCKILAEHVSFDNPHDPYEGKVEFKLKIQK

| Structure (SMILES) | IC50 [µM] |
| --- | --- |
| CCN(CC)c1ccccc1C[S+]([O-])c1nc2c(n1-c1ccccn1)CCC2 (stereo not drawn) [1,4,5,6-tetrahydro-1-(2-pyridyl)-2-(2-(diethylamino)benzylsulfinyl)cyclopenta(d)imidazole] | ~10 |
| [O-][S+](Cc1ccccc1NC1CCCCC1)c1nccn1-c1ccccn1 (stereo not drawn) [1-(2-pyridyl)-2-(2-(cyclohexylamino)benzylsulfinyl)imidazole] | < 10 |
| CCN(CC)c1ccccc1C[S+]([O-])c1nccn1-c1cc(OC)cc(C)n1 (stereo not drawn) [1-(4-methoxy-6-methyl-2-pyridyl)-2-(2-(diethylamino)benzylsulfinyl)imidazole] | < 10 |
